From publication PMC4227753, “Mycobacterium smegmatis DinB2 misincorporates deoxyribonucleotides and ribonucleotides during templated synthesis and lesion bypass” (Nucleic Acids Research, 2014)

Target: T1, DinB2 (Mycolicibacterium smegmatis, UniProt A0QR77)
T1 construct: gene dinB
Test: single-turnover primer extension, kobs vs [NTP], one-site fit
Assay type: biochemical
Details: 5 mM MgCl2, 10 mM Tris-HCl pH 7.5, 37 C, 1 uM DinB2, 50 nM 13-mer/18-mer primer-template

T1 sequence (A0QR77 entry or part of it): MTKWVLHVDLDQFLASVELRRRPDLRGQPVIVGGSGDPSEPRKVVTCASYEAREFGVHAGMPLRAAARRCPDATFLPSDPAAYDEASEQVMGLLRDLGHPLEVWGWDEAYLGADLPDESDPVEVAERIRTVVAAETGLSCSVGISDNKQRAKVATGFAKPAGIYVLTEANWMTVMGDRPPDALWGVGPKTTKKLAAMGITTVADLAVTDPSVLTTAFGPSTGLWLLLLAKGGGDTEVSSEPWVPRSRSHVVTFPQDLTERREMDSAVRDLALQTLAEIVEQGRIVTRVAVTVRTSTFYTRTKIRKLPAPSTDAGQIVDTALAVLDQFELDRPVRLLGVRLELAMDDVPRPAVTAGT

Nc1nc2c(ncn2[C@@H]2O[C@H](COP(=O)(O)OP(=O)(O)OP(=O)(O)O)[C@@H](O)[C@H]2O)c(=O)[nH]1 [GTP] gave a Kd (mispair: opposite template dT (oligo-dT5 tail)) of 386 µM.
Compound O=c1ccn([C@@H]2O[C@H](COP(=O)(O)OP(=O)(O)OP(=O)(O)O)[C@@H](O)[C@H]2O)c(=O)[nH]1 [UTP] has a Kd (mispair: opposite template dC (oligo-dC5 tail)) of 412 µM.
